# Source: publication PMC6321136, “Combined In Vitro Studies and in Silico Target Fishing for the Evaluation of the Biological Activities of Diphylleia cymosa and Podophyllum hexandrum” (Molecules, 2018)
# Assays:
# [1] = test system: Bacillus cereus ATCC 11778; test: Antibacterial microdilution assay; assay type: cell-based; settings: ATCC11778, read-out: B. cereus Mean ± SD (percentage of inhibition of microbial growth)
# Procedure: (§1) Antibacterial susceptibility was performed using the modified microdilution method for bacteria, against Gram-positive (Staphylococcus aureus ATCC 25923 and Bacillus cereus ATCC 11778) and Gram-negative recognized pathogens (Escherichia coli ATCC 11775, Enterohemorrhagic E. coli ATCC 43895-EHEC, Pseudomonas aeruginosa ATCC 10145 and Salmonella choleraesuis subs. choleraesuis sorotype Typhi BM/Panama-TY2).
# (§2) The experiments were performed in 96 well microplates. The extracts and isolated substance solubilized in DMSO (Vetec^TM) at 50 mg/mL were diluted in Mueller Hinton Broth (MHB, Difco) at a concentration of 500 µg/mL. The bacterial isolates, criopreserved at −80 °C were grown in Tryptic Soy Agar (TSA, Acumedia®) plates, at 37 °C for 18–24 h. The inoculum was adjusted in saline solution in a spectrophotometer at 625 nm, to a concentration of 1–5 × 10^8 CFU/mL and then diluted in MHB to 1–5 × 10^5 CFU/mL.
# (§3) Volumes of 100 μL of the inoculum were added to wells containing 100 μL of the extracts at […], in triplicate (one well intended for extract control), resulting in a final concentration of 250 μg/mL. Chloramphenicol at 50 μg/mL and 0.5% DMSO were used as positive and negative controls, respectively. Evaluation of microbial growth was carried out by adding the inoculum to a well containing only MHB. Sterility of the culture medium was also confirmed by incubation in the assay plate. Assays were performed in triplicate. The microplates were incubated at 37 °C for 24 h. As an indicator of microbial growth, 20 μL of 2,3,5-triphenyltetrazolium chloride (TTC, Sigma-Aldrich, St. Louis, MO, USA) at 5 mg/mLwere added to each well. The plates were incubated at 37 °C for 3 h and then the TTC was solubilized with 100 μL of sodium lauryl sulfate solution in isopropanol 7 μg/mL and measured in a microplate reader at 485 nm. The result was expressed as the percentage of inhibition compared with the microbial growth control, and was considered positive for antibacterial activity for those extracts with an inhibition higher than 50%.
# [2] = test system: Escherichia coli ATCC 11775; test: Antibacterial microdilution assay; assay type: cell-based; settings: ATCC11775, read-out: E. coli Mean ± SD (percentage of inhibition of microbial growth)
# Procedure: as §1, §2, §3
# [3] = test system: Pseudomonas aeruginosa ATCC 10145; test: Antibacterial microdilution assay; assay type: cell-based
# Procedure: as §1, §2, §3
# [4] = test system: Staphylococcus aureus ATCC 25923; test: Antibacterial microdilution assay; assay type: cell-based; settings: ATCC25923, read-out: S. aureus Mean ± SD (percentage of inhibition of microbial growth)
# Procedure: as §1, §2, §3
# [5] = DPPH radical scavenger activity
# Procedure: The evaluation of the antioxidant activity using the 2,2-diphenyl-1-picrylhydrazyl radical (DPPH) was performed according to the method proposed by Mensor et al., with adaptations. The samples were dissolved in MeOH at concentrations ranging from 1.0 to 200 μg/mL. A portion of 250 μL of each sample was added to a 96-well microplate. MeOH and pyrogallol (50 µg/mL) were employed as negative and positive controls, respectively. Then, 100 μL of either MeOH (blank wells) or DPPH solution (120 μg/mL, reaction wells) was added to the microplate. The reading was performed on a microplate reader (EL808IU-Biotek model, Biotek, Winooski, VT, USA), at 5 min intervals for a total of 45 min, at 515 nm. The percentage of radical scavenging activity (%RSA) was calculated using the following equation: % RSA = ((AC − AS)/AC) × 100, where AC is the absorbance of control and AS is the absorbance of samples taken at 35 min. The results were expressed in EC50 (effective concentration for 50% capture of the radicals) determined by non-linear regression using GraphPad Prism, version 6.0.
# [6] = test system: ADMET, Cytochrome P450 3A4; set-up: method as in PubChem Bioassay AID 885; settings: ref PubChem Bioassay AID 885; cited from earlier work
# [7] = test system: Agonist, endoplasmic reticulum stress response; set-up: method as in PubChem Bioassay AID 1159519; settings: ref PubChem Bioassay AID 1159519; cited from earlier work
# [8] = test system: Agonist, hypoxia; set-up: method as in PubChem Bioassay AID 1224894; settings: ref PubChem Bioassay AID 1224894; cited from earlier work
# [9] = test system: Agonist, p53; set-up: method as in PubChem Bioassay AID 651631; settings: ref PubChem Bioassay AID 651631; cited from earlier work
# [10] = test system: Angiogenesis model; set-up: method as in PubChem Bioassay AID 575; settings: ref PubChem Bioassay AID 575; cited from earlier work
# [11] = test system: Antagonist, retinoic acid receptor (RAR); set-up: method as in PubChem Bioassay AID 1159555; settings: ref PubChem Bioassay AID 1159555; cited from earlier work
# [12] = test system: Antagonist, retinoid-related orphan receptor gamma (ROR-gamma); set-up: method as in PubChem Bioassay AID 1159521; settings: ref PubChem Bioassay AID 1159521; cited from earlier work
# [13] = test system: Antagonist, thyroid receptor (TR); set-up: method as in PubChem Bioassay AID 743065; settings: ref PubChem Bioassay AID 743065; cited from earlier work
# [14] = test system: Cytotoxicity, Agonist, constitutive androstane receptor (CAR); set-up: method as in PubChem Bioassay AID 1224836; settings: ref PubChem Bioassay AID 1224836; cited from earlier work
# [15] = test system: Cytotoxicity, Agonist, endoplasmic reticulum stress response; set-up: method as in PubChem Bioassay AID 1159517; settings: ref PubChem Bioassay AID 1159517; cited from earlier work
# [16] = test system: Cytotoxicity, Agonist, p53; set-up: method as in PubChem Bioassay AID 651633; settings: ref PubChem Bioassay AID 651633; cited from earlier work
# [17] = test system: Cytotoxicity, Antagonist, androgen receptor (AR); set-up: method as in PubChem Bioassay AID 1259242; settings: ref PubChem Bioassay AID 1259242; cited from earlier work
structure (smiles),measurement,setting,value
"COc1cc([C@@H]2c3cc4c(cc3[C@H](O)[C@H]3COC(=O)[C@H]23)OCO4)cc(OC)c1OC [Podophyllotoxin, podophyllotoxin]",inhibition at 250 µg/mL,[1],0%
same,inhibition at 250 µg/mL,[2],51.6 ± 9.08%
same,P. aeruginosa Mean ± SD (percentage of inhibition of microbial growth),[3]; 250 µg/mL,No antibacterial activity
same,inhibition at 250 µg/mL,"[3]; Pseudomonas aeruginosa, ATCC10145, read-out: P. aeruginosa Mean ± SD (percentage of inhibition of microbial growth)",30.2 ± 9.39%
same,inhibition at 250 µg/mL,[4],53.3 ± 8.8%
same,Antioxidant Activity (IC50-µg/mL) DPPH Radical Sequestration,[5],>200 µg/mL
same,Exper. Activity,[6],Inactive
same,Exper. Activity,[7],Inactive
same,Exper. Activity,[8],Inactive
same,Exper. Activity,[9],Inactive
same,Exper. Activity,[10],Inactive
same,Exper. Activity,[11],Active
same,Exper. Activity,[12],Active
same,Exper. Activity,[13],Active
same,Exper. Activity,[14],Inactive
same,Exper. Activity,[15],Inactive
same,Exper. Activity,[16],Inactive
same,Exper. Activity,[17],Inactive
